For orientation: EC50 means the concentration giving half of the maximal effect. High values mean a less potent agent, low ones a more potent agent.

The first test deals with T1, hGPR119 (Homo sapiens, UniProt Q8TDV5).
T1 construct: expressed in transfected cells; host or cells: CHO
T1 sequence (Q8TDV5 1-335): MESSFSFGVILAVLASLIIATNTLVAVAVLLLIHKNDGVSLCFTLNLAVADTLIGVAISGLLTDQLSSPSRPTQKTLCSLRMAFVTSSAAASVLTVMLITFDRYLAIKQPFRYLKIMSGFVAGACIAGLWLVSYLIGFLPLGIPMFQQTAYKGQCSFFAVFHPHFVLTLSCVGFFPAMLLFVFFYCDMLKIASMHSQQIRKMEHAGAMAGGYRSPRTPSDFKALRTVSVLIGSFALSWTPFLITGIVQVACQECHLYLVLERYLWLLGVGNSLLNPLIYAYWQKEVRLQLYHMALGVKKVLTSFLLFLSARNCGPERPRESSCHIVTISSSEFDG
The test is described as follows: In vitro cyclic AMP assay (Cisbio dynamic 2 HTRF kit) in CHO-hGPR119 cells. In kind it is cell-based. As to conditions: 1 h, cAMP, compound at 1 μM, 60 min, read-out: Induction (% induction at 1 μM). The method, then: cAMP measurements were done using Cisbio dynamic 2 HTRF kit according to the manufacturer's protocol. Briefly, CHO-hGPR119 cells were plated at a cell density of 5000 cells/well/5 μl into a white small volume 384 well plate. The final concentrations of IBMX and DMSO used were 1 mM and 0.5% respectively. Cells were treated with various concentrations of the test compound for 60 min at room temperature. Cells were lysed by buffer containing Anti-cAMP antibody and d2-cAMP reagents and incubated for 1 hour at room temperature. HTRF was measured at 337 nm excitation and emission wavelengths of 665 nm and 620 nm on a microplate reader (Flurostar, BMG Labtech). Graphpad prism software was utilized for EC50 determinations.
(Time-resolved FRET reads energy transfer from a long-lived donor to a nearby acceptor.)
`C[C@H](Oc1nc2ccc(-c3ccc(S(C)(=O)=O)nc3)nc2s1)C1CCN(c2ncc(C(F)(F)F)cn2)CC1` [Compound 1166, 2-((S)-1-(1-(5-(trifluoromethyl)pyrimidin-2-yl)piperidin-4-yl)ethoxy)-5-(6-(methylsulfonyl)pyridin-3-yl)thiazolo[5,4-b]pyridine]: the activation at 1 µM was 70%.
For `CC(C)c1noc(N2CCC(C(C)Oc3nc4ccc(-c5ccnc(Cl)c5)nc4s3)CC2)n1` (stereo not shown) [Compound 1132, 2-(1-(1-(3-isopropyl-1,2,4-oxadiazol-5-yl)piperidin-4-yl)ethoxy)-5-(2-chloropyridin-4-yl)thiazolo[5,4-b]pyridine], the activation at 1 µM is 38%.
For the compound `CC(C)c1noc(N2CCC(C(C)Oc3nc4ccc(-c5ccc(S(C)(=O)=O)cc5F)nc4s3)CC2)n1` (stereo not shown) [Compound 1111, 5-(4-(1-((5-(2-fluoro-4-(methylsulfonyl)phenyl)thiazolo[5,4-b]pyridin-2-yl)oxy)ethyl)piperidin-1-yl)-3-isopropyl-1,2,4-oxadiazole], the activation at 1 µM is 24%.
`CC(C)c1noc(N2CCC(C(C)Oc3nc4ccc(-c5ccc(N6CCNC6=O)nc5)nc4s3)CC2)n1` (stereo not shown) [Compound 1144, 1-(5-(2-(1-(1-(3-isopropyl-1,2,4-oxadiazol-5-yl)piperidin-4-yl)ethoxy)thiazolo[5,4-b]pyridin-5-yl)pyridin-2-yl)imidazolidin-2-one]: the activation at 1 µM was 69%.
For the compound `CC(C)c1noc(N2CCC(C(C)Oc3nc4ccc(-c5ccc(C(=O)N6CCOCC6)cc5)nc4s3)CC2)n1` (stereo not shown) [Compound 1051, (4-(2-(1-(1-(3-isopropyl-1,2,4-oxadiazol-5-yl)piperidin-4-yl)ethoxy)thiazolo[5,4-b]pyridin-5-yl)phenyl)(morpholino)methanone], the activation at 1 µM was determined as 24%.
`CC(=O)N(C)c1ncc(-c2ccc3nc(OC(C)C4CCN(c5nc(C(C)C)no5)CC4)sc3n2)cn1` (stereo not shown) [Compound 1139, N-(5-(2-(1-(1-(3-isopropyl-1,2,4-oxadiazol-5-yl)piperidin-4-yl)ethoxy)thiazolo[5,4-b]pyridin-5-yl)pyrimidin-2-yl)-N-methylacetamide]: the activation at 1 µM was 65%.
For the compound `Cc1cnc(N2CCC(C(C)Oc3nc4ccc(-c5ccc(S(C)(=O)=O)nc5)nc4s3)CC2)nc1` (stereo not shown) [Compound 1157, 2-(1-(1-(5-methylpyrimidin-2-yl)piperidin-4-yl)ethoxy)-5-(6-(methylsulfonyl)pyridin-3-yl)thiazolo[5,4-b]pyridine], the activation at 1 µM stood at 81%.
`CC(C)c1noc(N2CCC(C(C)Oc3nc4ccc(-c5ccc(C(=O)NC6CC6)cc5)nc4s3)CC2)n1` (stereo not shown) [Compound 1049, N-cyclopropyl-4-(2-(1-(1-(3-isopropyl-1,2,4-oxadiazol-5-yl)piperidin-4-yl)ethoxy)thiazolo[5,4-b]pyridin-5-yl)benzamide]: the activation at 1 µM was 14%.
Turning to `CNS(=O)(=O)c1ccc(-c2ccc3nc(OC(C)C4CCN(c5nc(C(C)C)no5)CC4)sc3n2)cc1` (stereo not shown) [Compound 1061, 4-(2-(1-(1-(3-isopropyl-1,2,4-oxadiazol-5-yl)piperidin-4-yl)ethoxy)thiazolo[5,4-b]pyridin-5-yl)-N-methylbenzenesulfonamide], the activation at 1 µM is 48%.
On to `CC(C)c1noc(C2CCN(c3nc4ccc(-c5ccc(C(=O)N6CCOCC6)cc5)nc4s3)CC2)n1` [Compound 1029, (4-(2-(4-(3-isopropyl-1,2,4-oxadiazol-5-yl)piperidin-1-yl)thiazolo[5,4-b]pyridin-5-yl)phenyl)(morpholino)methanone], for which the activation at 1 µM came out at 47%.
For `CCc1cnc(N2CCC(C(=O)Nc3nc4ccc(-c5ccc(S(C)(=O)=O)cc5)nc4s3)CC2)nc1` [Compound 1014, 1-(5-ethylpyrimidin-2-yl)-N-(5-(4-(methylsulfonyl)phenyl)thiazolo[5,4-b]pyridin-2-yl)piperidine-4-carboxamide], the activation at 1 µM came out at 5%.
`CC(Oc1nc2ccc(-c3ccc(S(C)(=O)=O)cc3)nc2s1)C1CCN(S(=O)(=O)C2CC2)CC1` (stereo not shown) [Compound 1109, 2-(1-(1-(cyclopropylsulfonyl)piperidin-4-yl)ethoxy)-5-(4-(methylsulfonyl)phenyl)thiazolo[5,4-b]pyridine]: the activation at 1 µM stood at 0%.
In the case of `CC(C)c1noc(N2CCC(C(C)Oc3nc4ccc(-c5cnc(Cl)nc5)nc4s3)CC2)n1` (stereo not shown) [Compound 1116, 5-(4-(1-((5-(2-chloropyrimidin-5-yl)thiazolo[5,4-b]pyridin-2-yl)oxy)ethyl)piperidin-1-yl)-3-isopropyl-1,2,4-oxadiazole], the activation at 1 µM worked out at 61%.
Turning to `CC(C)c1noc(N2CCC([C@H](C)Oc3nc4ccc(-c5ccc(S(C)(=O)=O)nc5F)nc4s3)CC2)n1` [Compound 1167, 2-((S)-1-(1-(3-isopropyl-1,2,4-oxadiazol-5-yl)piperidin-4-yl)ethoxy)-5-(2-fluoro-6-(methylsulfonyl)pyridin-3-yl)thiazolo[5,4-b]pyridine], the activation at 1 µM turned out to be 20%.
Take `CC(C)c1noc(C2CCN(c3nc4ccc(-c5ccc(C(=O)N(C)C)cc5)nc4s3)CC2)n1` [Compound 1022, 4-(2-(4-(3-isopropyl-1,2,4-oxadiazol-5-yl)piperidin-1-yl)thiazolo[5,4-b]pyridin-5-yl)-N,N-dimethylbenzamide]: the activation at 1 µM came to 35%.
As for `CC(C)c1noc(N2CCC(C(C)Oc3nc4ccc(-c5ccc(S(C)(=O)=O)cc5)nc4s3)CC2)n1` (stereo not shown) [Compound 1020, 3-isopropyl-5-(4-(1-((5-(4-(methylsulfonyl)phenyl)thiazolo[5,4-b]pyridin-2-yl)oxy)ethyl)piperidin-1-yl)-1,2,4-oxadiazole], the activation at 1 µM worked out at 68%.
On to `CC(C)c1noc(N2CCC([C@H](C)Oc3nc4ncc(-c5ccc(S(C)(=O)=O)nc5)nc4s3)CC2)n1` [Compound 1114, (S)-3-isopropyl-5-(4-(1-((6-(6-(methyslulfonyl)pyridin-3-yl)thiazolo[4,5-b]pyrazin-2-yl)oxy)ethyl)piperidin-1-yl)-1,2,4-oxadiazole], for which the activation at 1 µM came out at 75%.
With `COCCS(=O)(=O)c1ccc(-c2ccc3nc(OC(C)C4CCN(c5nc(C(C)C)no5)CC4)sc3n2)cc1` (stereo not shown) [Compound 1067, 3-isopropyl-5-(4-(1-((5-(4-((2-methoxyethyl)sulfonyl)phenyl)thiazolo[5,4-b]pyridin-2-yl)oxy)ethyl)piperidin-1-yl)-1,2,4-oxadiazole], the activation at 1 µM turned out to be 36%.
With `CC(C)c1noc(N2CCC(Oc3nc4ccc(-c5ccc(S(C)(=O)=O)cc5)nc4s3)CC2)n1` [Compound 1007, 3-isopropyl-5-(4-((5-(4-(methylsulfonyl)phenyl)thiazolo[5,4-b]pyridin-2-yl)oxy)piperidin-1-yl)-1,2,4-oxadiazole], the activation at 1 µM was 39%.
With `CC(C)c1noc(N2CCC(C(C)Oc3nc4ccc(-c5ccc(S(C)(=O)=O)cn5)nc4s3)CC2)n1` (stereo not shown) [Compound 1161, 2-(1-(1-(3-isopropyl-1,2,4-oxadiazol-5-yl)piperidin-4-yl)ethoxy)-5-(5-(methylsulfonyl)pyridin-2-yl)thiazolo[5,4-b]pyridine], the activation at 1 µM was 69%.
On to `CC(Oc1nc2ccc(-c3ccc(S(C)(=O)=O)nc3)nc2s1)C1CCN(c2cnc(Cl)cn2)CC1` (stereo not shown) [Compound 1151, 2-(1-(1-(5-chloropyrazin-2-yl)piperidin-4-yl)ethoxy)-5-(6-(methylsulfonyl)pyridin-3-yl)thiazolo[5,4-b]pyridine], for which the activation at 1 µM was 66%.
For the compound `CCc1noc(N2CCC(C(C)Oc3nc4ccc(-c5ccc(S(C)(=O)=O)nc5)nc4s3)CC2)n1` (stereo not shown) [Compound 1156, 2-(1-(1-(3-ethyl-1,2,4-oxadiazol-5-yl)piperidin-4-yl)ethoxy)-5-(6-(methylsulfonyl)pyridin-3-yl)thiazolo[5,4-b]pyridine], the activation at 1 µM turned out to be 54%.
For the compound `CC(C)c1noc(N2CCC(C(C)Oc3nc4ccc(-c5cnoc5)nc4s3)CC2)n1` (stereo not shown) [Compound 1122, 3-isopropyl-5-(4-(1-((5-(isoxazol-4-yl)thiazolo[5,4-b]pyridin-2-yl)oxy)ethyl)piperidin-1-yl)-1,2,4-oxadiazole], the activation at 1 µM is 30%.
Same read-out and setting: for `CC(C)c1noc(N2CC[C@@H](COc3nc4ccc(-c5ccc(S(C)(=O)=O)cc5)nc4s3)[C@@H](F)C2)n1` [Compound 1128, 5-((3R,4S)-3-fluoro-4-(((5-(4-(methylsulfonyl)phenyl)thiazolo[5,4-b]pyridin-2-yl)oxy)methyl)piperidin-1-yl)-3-isopropyl-1,2,4-oxadiazole] the value was 10%.
As for `CC(C)c1noc(N2CCC(C(C)Oc3nc4ccc(-c5ccc(S(C)(=O)=O)nc5)nc4s3)CC2)n1` (stereo not shown) [Compound 1069, 3-isopropyl-5-(4-(1-((5-(6-(methylsulfonyl)pyridin-3-yl)thiazolo[5,4-b]pyridin-2-yl)oxy)ethyl)piperidin-1-yl)-1,2,4-oxadiazole], the activation at 1 µM turned out to be 80%.
For the compound `CC(C)c1noc(N2CCC(C(C)Oc3nc4ccc(-c5ccc(C(=O)N(C)C)cc5F)nc4s3)CC2)n1` (stereo not shown) [Compound 1046, 3-fluoro-4-(2-(1-(1-(3-isopropyl-1,2,4-oxadiazol-5-yl)piperidin-4-yl)ethoxy)thiazolo[5,4-]pyridin-5-yl)-N,N-dimethylbenzamide], the activation at 1 µM stood at 1%.

The same test, now with this note: cAMP.
On to `CC(C)c1noc(N2CCC(C(C)Oc3nc4ccc(-c5ccc(S(C)(=O)=O)cc5)nc4s3)CC2)n1` (stereo not shown) [Compound 1020, 3-isopropyl-5-(4-(1-((5-(4-(methylsulfonyl)phenyl)thiazolo[5,4-b]pyridin-2-yl)oxy)ethyl)piperidin-1-yl)-1,2,4-oxadiazole], for which the 50% effective concentration (EC50) lay within 100 to 500 nM.
In the case of `CC(C)c1noc(N2CCC([C@H](C)Oc3nc4ncc(-c5ccc(S(C)(=O)=O)nc5)nc4s3)CC2)n1` [Compound 1114, (S)-3-isopropyl-5-(4-(1-((6-(6-(methyslulfonyl)pyridin-3-yl)thiazolo[4,5-b]pyrazin-2-yl)oxy)ethyl)piperidin-1-yl)-1,2,4-oxadiazole], the EC50 was in the range of 50 to 100 nM.

(Values after patent publication US10526345B2, “Compounds as GPR119 agonists” (Mankind Pharma Ltd., priority 2016, dated 2020).)
